Measured values taken from US12161642B2, “Ferrochelatase inhibitors and methods of use” (INDIANA UNIVERSITY RESEARCH AND TECHNOLOGY CORPORATION, priority 2018, dated 2024).

Assays:
[1] = molecular target: recombinant human FECH (Homo sapiens (Human), UniProt P22830); assay: FECH enzymatic activity assay (Ni2+ mesoporphyrin IX formation, absorbance at 550 nm); type: biochemical; conditions: recombinant FECH; read-out: FECH IC50
Protocol: The human FECH expression plasmid pHDTF20 was obtained in E. coli cells from the Dailey Lab (University of Georgia). The cells were grown in Circlegrow medium (MP Biomedicals, LLC #3000-122) with ampicillin for 20 hours. Cells were harvested, lysed in a Tris-MOPS buffer and purified by immobilized metal affinity chromatography using HisPur Cobalt resin (Thermo Fisher #89965).
The activity assay buffer was 100 mM Tris-HCl pH 8.0 with 0.05% octyl glucoside detergent. Assay reagents included 100 μM NiCl (Sigma #339350), 0.75 μM FECH enzyme and 100 μM mesoporphyrin (Sigma #258806) prepared in ammonium hydroxide (Santa Cruz #sc-214535).
The kinetic assay was optimized for a 384-well format. For the 384-well assay, each well contained a 50 μL reaction with 40 μL buffer, 5 μL mesoporphyrin solution, 5 μL NiCl and FECH solution. […] This time point was used for the chemical screen.
A mixture of assay buffer, NiCl and FECH enzyme (15 μL) was added to all wells on the assay plate using a MulitFlo dispenser. To start the reaction, 15 μL of a 333 μM mesoporphyrin solution in assay buffer was added to the plate, the plate spun down and the absorbance at OD=550 nm immediately read to establish a read at time 0. Plates were read for absorbance at OD=550 nm again at t=20 minutes and the activity was expressed as the change in the absorbance over the 20 minute reaction.
Compounds, reordered from ChemDiv or synthesized as described above, were made to 10 mM in DMSO and tested in the FECH enzymatic assay at final concentrations of […] 100 μM (1% final DMSO concentration). IC50 values for the compounds were determined using GraphPad Prism software.
A kinetic assay to monitor FECH enzymatic activity was adapted from a published protocol (Burden et a., Biochim Biophys Acta 1435, 191-197 (1999)).

[2] = tested on: HRECs; assay: HREC proliferation assay (alamarBlue), GI50 determination; type: cell-based, human; conditions: proliferation of HRECs
Protocol: Human retinal microvascular endothelial cells (HRECs) were cultured in EGM-2 medium (Lonza). Cells (2500/well) in EGM-2 medium were plated in 48 wells in the center of a 96-well black with clear bottom TC treated plate are allowed to attach overnight. The cells were treated with compounds such that final assay concentrations were 100 μM, 30 μM, 10 μM, 3 μM, 1 μM, 100 nM, and 10 nM with DMSO control (1% final DMSO concentration). Cells were allowed to proliferate for 44 hours prior to addition of alamarBlue. The alamarBlue reagent is a flurorometric/colorimetric redox reagent that is reduced in the presence of growing cells. The assay was completed with a read of fluorescence at excitation of 560 nm and emission of 590 nm. GI50 values were determined using GraphPad Prism software.

Chain of recombinant human FECH (P22830 55-423): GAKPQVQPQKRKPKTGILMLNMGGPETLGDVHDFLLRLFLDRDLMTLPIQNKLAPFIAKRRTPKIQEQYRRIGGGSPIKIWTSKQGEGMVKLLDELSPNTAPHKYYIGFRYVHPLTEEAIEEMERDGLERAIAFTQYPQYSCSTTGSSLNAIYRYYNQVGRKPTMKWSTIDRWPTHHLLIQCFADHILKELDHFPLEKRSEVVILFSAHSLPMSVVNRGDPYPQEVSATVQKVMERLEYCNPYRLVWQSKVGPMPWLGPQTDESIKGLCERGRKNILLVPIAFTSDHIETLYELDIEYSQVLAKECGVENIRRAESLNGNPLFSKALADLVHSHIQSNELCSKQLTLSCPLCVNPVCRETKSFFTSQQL

Row | IC50 [1] [µM] | SMILES | GI50 ([2]; Homo sapiens, HREC, 44 h) [µM] | GI50 ([2]; 44 hours) [µM]
1 | > 100 | CC(C)(C)c1ccc(-c2nc3[nH]c(CNC4CCCC4)cc(=O)n3n2)cc1 [Example 4f, 2-(4-(tert-butyl)phenyl)-5-((cyclopentylamino)methyl)-[1,2,4]triazolo[1,5-a]pyrimidin-7(4H)-one] | > 100 | –
2 | 78 | CCCCCOc1ccc(NCc2nc3[nH]c(CCC)cc(=O)n3n2)cc1 [Example 5l, 2-(((4-(pentyloxy)phenyl)amino)methyl)-5-propyl-[1,2,4]triazolo[1,5-a]pyrimidin-7(4H)-one] | > 100 | –
3 | > 100 | CC(C)(C)c1ccc(-c2n[nH]c(N)n2)cc1 [Example 1, 3-(4-(tert-butyl)phenyl)-1H-1,2,4-triazol-5-amine] | > 100 | –
4 | 34.1 | CCCc1cc(=O)n2nc(CNc3ccc(OC(F)(F)F)cc3)nc2[nH]1 [Example 5n, 5-propyl-2-(((4-(trifluoromethoxy)phenyl)amino)methyl)-[1,2,4]triazolo[1,5-a]pyrimidin-7(4H)-one] | > 100 | –
5 | 0.829 | CCCc1cc(=O)n2nc(CNc3ccc(Cl)cc3)nc2[nH]1 [Example D433-1739] | – | 3.14
6 | > 100 | CN(Cc1ccccc1)Cc1cc(=O)n2nc(-c3ccc(C(C)(C)C)cc3)nc2[nH]1 [Example 4a, 5-((benzyl(methyl)amino)methyl)-2-(4-(tert-butyl)phenyl)-[1,2,4]triazolo[1,5-a]pyrimidin-7(4H)-one] | > 100 | –
7 | 27.3 | CCCc1cc(=O)n2nc(CNc3ccccc3-c3ccccc3)nc2[nH]1 [Example 5g, 2-(([1,1′-biphenyl]-2-ylamino)methyl)-5-propyl-[1,2,4]triazolo[1,5-a]pyrimidin-7(4H)-one] | > 100 | –
8 | > 100 | CC(C)(C)c1ccc(-c2nc3[nH]c(CNc4cnccn4)cc(=O)n3n2)cc1 [Example 4d, 2-(4-(tert-butyl)phenyl)-5-((pyrazin-2-ylamino)methyl)-[1,2,4]triazolo[1,5-a]pyrimidin-7(4H)-one] | > 100 | –
9 | 1.02 | Cc1ccc(NCc2nc3[nH]c(C(C)C)cc(=O)n3n2)cc1Cl [Example D433-1798] | > 100 | –
10 | 1.05 | O=c1c2c([nH]c3nc(CNc4ccc(Cl)cc4)nn13)CCC2 [Example D433-1839] | 81.5 | –
11 | 3.75 | COc1cccc(NCc2nc3[nH]c4c(c(=O)n3n2)CCC4)c1 [Example D433-1841] | > 100 | –
12 | > 100 | CC(C)(C)c1ccc(-c2nc3[nH]c(CCl)cc(=O)n3n2)cc1 [Example 3, 2-(4-(tert-butyl)phenyl)-5-(chloromethyl)-[1,2,4]triazolo[1,5-a]pyrimidin-7(4H)-one] | > 100 | –
13 | 3.62 | Cc1ccc(NCc2nc3[nH]c4c(c(=O)n3n2)CCC4)cc1 [Example 5q, 2-((p-tolylamino)methyl)-4,5,6,7-tetrahydro-8H-cyclopenta[d][1,2,4]triazolo[,5-a]pyrimidin-8-one] | > 100 | –
14 | 2.86 | CCCc1cc(=O)n2nc(CNc3cccc(OC)c3)nc2[nH]1 [Example D433-1741] | 1.61 | –
15 | 1.39 | Cc1cccc(C)c1NCc1cc(=O)n2nc(-c3ccc(C(C)(C)C)cc3)nc2[nH]1 [Example D351-0312] | > 100 | –
16 | 1.25 | CCc1ccccc1NCc1nc2[nH]c(C)c(Cc3ccc(Cl)cc3)c(=O)n2n1 [Example D433-1585] | 74.6 | –
17 | 2.15 | CCCc1cc(=O)n2nc(CNc3cccc(Cl)c3C)nc2[nH]1 [Example D433-1750] | > 100 | –
18 | 0.346 | Cc1ccc(Cl)cc1NCc1cc(=O)n2nc(-c3ccccc3C)nc2[nH]1 [Example D351-0414] | > 100 | –
19 | 4.39 | CCCc1cc(=O)n2nc(CNc3cccc(C(F)(F)F)c3)nc2[nH]1 [Example D433-1725] | 1.17 | –
20 | 0.0614 | COc1ccc(NCc2nc3[nH]c(C)c(Cc4ccc(Cl)cc4)c(=O)n3n2)cc1 [Example D433-1582] | > 100 | –

Row | IC50 [1] [µM] | SMILES | GI50 ([2]; Homo sapiens, HREC, 44 h) [µM] | GI50 ([2]; 44 hours) [µM]
21 | > 100 | CC(C)(C)c1ccc(-c2nc3[nH]c(CNc4ccnn4-c4ccccc4)cc(=O)n3n2)cc1 [Example 4b, 2-(4-(tert-butyl)phenyl)-5-(((1-phenyl-1H-pyrazol-5-yl)amino)methyl)-[1,2,4]triazolo[1,5-a]pyrimidin-7(4H)-one] | > 100 | –
22 | 0.0981 | Cc1ccc(Cl)cc1NCc1cc(=O)n2nc(-c3ccc(C(C)(C)C)cc3)nc2[nH]1 [Example D351-0310] | 42.3 | –
23 | 0.808 | COc1ccc(Cl)cc1NCc1cc(=O)n2nc(-c3ccc(C(C)(C)C)cc3)nc2[nH]1 [Example D351-0303] | 21.7 | –
24 | 2.99 | CCOC(=O)CCc1c(C)[nH]c2nc(CNc3ccc(C)c(Cl)c3)nn2c1=O [Example D433-1688] | > 100 | –
25 | 0.525 | CCCc1cc(=O)n2nc(CNc3ccc(F)cc3)nc2[nH]1 [Example 5m, 2-(((4-fluorophenyl)amino)methyl)-5-propyl-[1,2,4]triazolo[1,5-a]pyrimidin-7(4H)-one] | > 100 | –
26 | 22.5 | Cc1ccc(NCc2nc3[nH]c(C)cc(=O)n3n2)cc1 [Example 5w, 5-methyl-2-((p-tolylamino)methyl)-[1,2,4]triazolo[1,5-a]pyrimidin-7(4H)-one] | > 100 | –
27 | 18.7 | Cc1cccc(NCc2nc3[nH]c(C)cc(=O)n3n2)c1 [Example 5v, 5-methyl-2-((m-tolylamino)methyl)-[1,2,4]triazolo[1,5-a]pyrimidin-7(4H)-one] | > 100 | –
28 | 0.227 | Cc1ccc(NCc2nc3[nH]c4c(c(=O)n3n2)CCC4)cc1Cl [Example D433-1848] | > 100 | –
29 | 16.8 | Cc1ccc(NCc2nc3[nH]c(C(C)C)cc(=O)n3n2)cc1 [Example 5t, 5-isopropyl-2-((p-tolylamino)methyl)-[1,2,4]triazolo[1,5-a]pyrimidin-7(4H)-one] | > 100 | –
30 | 17.9 | Cc1ccccc1NCc1nc2[nH]c(C(C)C)cc(=O)n2n1 [Example 5r, 5-isopropyl-2-((o-tolylamino)methyl)-[1,2,4]triazolo[1,5-a]pyrimidin-7(4H)-one] | > 100 | –
31 | 0.346 | CCCc1cc(=O)n2nc(CNc3cccc(Cl)c3)nc2[nH]1 [Example 5e, 2-(((3-chlorophenyl)amino)methyl)-5-propyl-[1,2,4]triazolo[1,5-a]pyrimidin-7(4H)-one] | > 100 | –
32 | > 100 | CC(C)(C)c1ccc(-c2nc3[nH]c(CNCCc4ccccc4)cc(=O)n3n2)cc1 [Example 4c, 2-(4-(tert-butyl)phenyl)-5-((phenethylamino)methyl)-[1,2,4]triazolo[1,5-a]pyrimidin-7(4H)-one] | > 100 | –
33 | 0.0336 | CCCc1cc(=O)n2nc(CNc3ccc(F)c(Cl)c3)nc2[nH]1 [Example 5i, 2-(((3-chloro-4-fluorophenyl)amino)methyl)-5-propyl-[1,2,4]triazolo[1,5-a]pyrimidin-7(4H)-one] | > 100 | –
34 | 77.2 | Cc1cc(=O)n2nc(CNc3ccccc3C)nc2[nH]1 [Example 5u, 5-methyl-2-((o-tolylamino)methyl)-[1,2,4]triazolo[1,5-a]pyrimidin-7(4H)-one] | > 100 | –
35 | 0.508 | CCCc1cc(=O)n2nc(CNc3cccc(C)c3)nc2[nH]1 [Example 5b, 5-propyl-2-((m-tolylamino)methyl)-[1,2,4]triazolo[1,5-a]pyrimidin-7(4H)-one] | > 100 | –
36 | > 100 | Cc1ccccc1NCc1nc2[nH]c3c(c(=O)n2n1)CCC3 [Example 5o, 2-((o-tolylamino)methyl)-4,5,6,7-tetrahydro-8H-cyclopenta[d][1,2,4]triazolo[1,5-a]pyrimidin-8-one] | > 100 | –
37 | 0.751 | Cc1c(Cl)cccc1NCc1nc2[nH]c(C(C)C)cc(=O)n2n1 [Example D433-1800] | – | –
38 | > 100 | Cc1cc(=O)n2nc(-c3ccc(C(C)(C)C)cc3)nc2[nH]1 [Example 2, 2-(4-(tert-butyl)phenyl)-5-methyl-[1,2,4]triazolo[1,5-a]pyrimidin-7(4H)-one] | > 100 | –
39 | – | COc1cccc(NCc2cc(=O)n3nc(-c4ccc(C(C)(C)C)cc4)nc3[nH]2)c1 [Example D351-0319] | > 100 | –
